This is an account of results in patent US20090298780A1, “Methods To Produce Lung Surfactant Formulations Via Lyophilization And Formulations And Uses Thereof” (priority 2004, published 2009).

Structures are written as SMILES. In brackets after ≈: the same amount, converted by molar mass.

Data set [1] in a line: Achievable dissolution concentrations of individual components in 60% TBA cosolvent without NaCl. It is filed as physicochemical. Conditions: 60% TBA without NaCl; for Measured Concentration (mg/ml) AVG: average of 3, room temperature; for Measured Concentration (mg/ml) 1: replicate 1; for Measured Concentration (mg/ml) 2: replicate 2; for Measured Concentration (mg/ml) 3: replicate 3.

Data set [2] is described as follows: Individual component solubility in t-butanol/water solutions (HPLC). As to conditions: about 37° C.
Description: Aliquots of each lipid and peptide were accurately weighed into 1.5 ml Eppendorf tubes. […] To each tube 0.2 ml of solvent was added. Each tube was vortexed and then bath sonicated for several minutes to facilitate dissolution. Samples were then placed in a 37° C. bath for approximately 30 minutes and then removed and placed on the counter for up to 30 minutes. […] Three independent Eppendorf tubes were prepared and tested for each solute-solvent combination. Visual observations were made of each tube as to whether they appeared a) clear (i.e., apparently fully soluble), b) to contain non-dissolved material, or c) indeterminate. Small aliquots of each tube were then taken, diluted in the HPLC running buffer, and analyzed by HPLC. HPLC was performed using a CIS column by established methods.

With `CCCCCCCC/C=C\CCCCCCCC(=O)O[C@H](COC(=O)CCCCCCCCCCCCCCC)COP(=O)(O)OCC(O)CO` (stereo partly drawn) [POPG, palmitoyloleoyl phosphatidylglycerol], in data set [1], the “Measured Concentration (mg/ml) AVG” value came out at 290.9 mg/mL, the “Measured Concentration (mg/ml) 1” value came out at 298.4 mg/mL, the “Measured Concentration (mg/ml) 2” value was 283.7 mg/mL and the “Measured Concentration (mg/ml) 3” value is 290.6 mg/mL. Moreover, in data set [2] (50% t-butanol/water), the “Solubility (mg/ml) 50%” value was >47 mg/mL. For the same molecule, in data set [2] (80% t-butanol/water), the “Solubility (mg/ml) 80%” value was >119 mg/mL. Moreover, the “Solubility (mg/ml) 90%” value in data set [2] (90% t-butanol/water) is >160 mg/mL. Also, the “Solubility (mg/ml) 95%” value in data set [2] (95% t-butanol/water) was 34 mg/mL (≈ 45.4 mM). Also, the “Solubility (mg/ml) 97.5%” value in data set [2] (97.5% t-butanol/water) is 20 mg/mL (≈ 26.7 mM). Also, the “Solubility (mg/ml) 99%” value in data set [2] (99% t-butanol/water) is <5 mg/mL. The “Solubility (mg/ml) 100%” value in data set [2] (100% t-butanol) was <5 mg/mL.

With `CCCCCCCCCCCCCCCC(=O)OC[C@H](COP(=O)([O-])OCC[N+](C)(C)C)OC(=O)CCCCCCCCCCCCCCC` [DPPC, dipalmitoyl phosphatidylcholine], in data set [1], the “Measured Concentration (mg/ml) AVG” value was 35.0 mg/mL, the “Measured Concentration (mg/ml) 1” value stood at 34.8 mg/mL, the “Measured Concentration (mg/ml) 2” value came to 35.0 mg/mL and the “Measured Concentration (mg/ml) 3” value came to 35.2 mg/mL.
